How the values were obtained:
[1] = target: T1, human orexin-2 receptor (hOX2R) (Homo sapiens, UniProt O43614); assay: FLIPR Ca2+ Flux Assay, CHO cells expressing hOX2R; assay type: cell-based; settings: agonist 70 pM Ala-6,12 orexin-A
T1 construct: expressed in transfected cells; host or cells: Chinese hamster ovary (CHO) cells, grown under G418 selection
T1 sequence (O43614 1-444): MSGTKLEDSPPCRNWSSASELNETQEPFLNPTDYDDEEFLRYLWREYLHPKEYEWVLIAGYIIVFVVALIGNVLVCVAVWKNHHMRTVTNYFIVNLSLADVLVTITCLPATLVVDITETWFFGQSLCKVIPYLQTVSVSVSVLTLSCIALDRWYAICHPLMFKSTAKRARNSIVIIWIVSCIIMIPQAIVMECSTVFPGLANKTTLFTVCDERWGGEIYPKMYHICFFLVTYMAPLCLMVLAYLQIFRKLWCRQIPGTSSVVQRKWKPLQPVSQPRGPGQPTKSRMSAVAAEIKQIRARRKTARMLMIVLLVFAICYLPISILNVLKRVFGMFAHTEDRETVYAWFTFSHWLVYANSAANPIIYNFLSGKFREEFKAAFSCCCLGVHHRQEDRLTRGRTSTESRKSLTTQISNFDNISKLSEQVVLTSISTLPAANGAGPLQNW
Experimental: The utility of the compounds in accordance with the present invention as orexin receptor OX1R and/or OX2R antagonists may be readily determined without undue experimentation by methodology well known in the art, including the “FLIPR Ca^2+ Flux Assay” (Okumura et al., Biochem. Biophys. Res. Comm. 280:976-981, 2001). In a typical experiment the OX1 and OX2 receptor antagonistic activity of the compounds of the present invention was determined in accordance with the following experimental method. For intracellular calcium measurements, Chinese hamster ovary (CHO) cells expressing the rat orexin-1 receptor or the human orexin-2 receptor, are grown in Iscove's modified DMEM containing 2 mM L-glutamine, […], 1% hypoxanthine-thymidine supplement, 100 U/ml penicillin, 100 μg/ml streptomycin and 10% heat-inactivated fetal calf serum (FCS). The cells are seeded at 20,000 cells/well into Becton-Dickinson black 384-well clear bottom sterile plates coated with poly-D-lysine. All reagents were from GIBCO-Invitrogen Corp. The seeded plates are incubated overnight at 37° C. and 5% CO2. Ala-6,12 human orexin-A as the agonist is prepared as a 1 mM stock solution in 1% bovine serum albumin (BSA) and diluted in assay buffer (HBSS containing 20 mM HEPES, 0.1% BSA and 2.5 mM probenecid, pH7.4) for use in the assay at a final concentration of 70 pM. Test compounds are prepared as 10 mM stock solution in DMSO, then diluted in 384-well plates, first in DMSO, then assay buffer. On the day of the assay, cells are washed 3 times with 100 μl assay buffer and then incubated for 60 min (37° C., 5% CO2) in 60 μl assay buffer containing 1 μM Fluo-4AM ester, 0.02% pluronic acid, and 1% BSA. The dye loading solution is then aspirated and cells are washed 3 times with 100 μl assay buffer. 30 μl of that same buffer is left in each well. Within the Fluorescent Imaging Plate Reader (FLIPR, Molecular Devices), test compounds are added to the plate in a volume of 25 μl, incubated for 5 min and finally 25 μl of agonist is added. Fluorescence is measured for each well at 1 second intervals for 5 minutes and the height of each fluorescence peak is compared to the height of the fluorescence peak induced by 70 pM Ala-6,12 orexin-A with buffer in place of antagonist. For each antagonist, IC50 value (the concentration of compound needed to inhibit 50% of the agonist response) is determined. Alternatively, compound potency can be assessed by a radioligand binding assay (described in Bergman et. al. Bioorg. Med. Chem. Lett. 2008, 18, 1425-1430) in which the inhibition constant (Ki) is determined in membranes prepared from CHO cells expressing either the OX1 or OX2 receptor. The intrinsic orexin receptor antagonist activity of a compound which may be used in the present invention may be determined by these assays.
Chinese hamster ovary (CHO) cells expressing the human orexin-1 receptor (hOX1R) or the human orexin-2 receptor (hOX2R) were grown in Iscove's modified DMEM containing 2 mM L-glutamine, […], 1% hypoxanthine-thymidine supplement, 100 U/ml penicillin, 100 μg/ml streptomycin and 10% heat-inactivated fetal calf serum (FCS). The cells were seeded at 20,000 cells/well into Becton-Dickinson black 384-well clear bottom sterile plates coated with poly-D-lysine. All reagents were from GIBCO-Invitrogen Corp. The seeded plates were incubated overnight at 37° C. and 5% CO2. Ala-6,12 human orexin-A, used as the agonist, was prepared as a 1 mM stock solution in 1% bovine serum albumin (BSA) and diluted in assay buffer (HBSS containing 20 mM HEPES, 0.1% BSA and 2.5 mM probenecid, pH7.4) for use in the assay at a final concentration of 70 pM. Test compounds were prepared as 10 mM stock solution in DMSO, then diluted in 384-well plates, first in DMSO, then assay buffer. […]

[2] = target: T2, human orexin-1 receptor (hOX1R) (Homo sapiens, UniProt O43613); assay: FLIPR Ca2+ Flux Assay, CHO cells expressing hOX1R; assay type: cell-based; settings: agonist 70 pM Ala-6,12 orexin-A
T2 construct: expressed in transfected cells; host or cells: Chinese hamster ovary (CHO) cells, grown under G418 selection
T2 sequence (O43613 1-425): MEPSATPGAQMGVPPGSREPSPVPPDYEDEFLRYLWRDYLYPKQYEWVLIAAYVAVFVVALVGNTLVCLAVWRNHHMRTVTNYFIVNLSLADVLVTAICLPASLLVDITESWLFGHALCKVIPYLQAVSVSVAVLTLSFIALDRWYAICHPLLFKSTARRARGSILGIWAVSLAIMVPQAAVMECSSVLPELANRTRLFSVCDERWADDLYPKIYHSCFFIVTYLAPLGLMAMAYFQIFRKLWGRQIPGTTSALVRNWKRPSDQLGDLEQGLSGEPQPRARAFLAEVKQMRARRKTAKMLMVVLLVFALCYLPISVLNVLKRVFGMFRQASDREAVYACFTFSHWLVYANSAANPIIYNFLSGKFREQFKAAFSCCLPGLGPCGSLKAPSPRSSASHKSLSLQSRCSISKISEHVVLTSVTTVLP
Experimental: Chinese hamster ovary (CHO) cells expressing the human orexin-1 receptor (hOX1R) or the human orexin-2 receptor (hOX2R) were grown in Iscove's modified DMEM containing 2 mM L-glutamine, […], 1% hypoxanthine-thymidine supplement, 100 U/ml penicillin, 100 μg/ml streptomycin and 10% heat-inactivated fetal calf serum (FCS). The cells were seeded at 20,000 cells/well into Becton-Dickinson black 384-well clear bottom sterile plates coated with poly-D-lysine. All reagents were from GIBCO-Invitrogen Corp. The seeded plates were incubated overnight at 37° C. and 5% CO2. Ala-6,12 human orexin-A, used as the agonist, was prepared as a 1 mM stock solution in 1% bovine serum albumin (BSA) and diluted in assay buffer (HBSS containing 20 mM HEPES, 0.1% BSA and 2.5 mM probenecid, pH7.4) for use in the assay at a final concentration of 70 pM. Test compounds were prepared as 10 mM stock solution in DMSO, then diluted in 384-well plates, first in DMSO, then assay buffer.
On the day of the assay, cells were washed 3× with 100 μl assay buffer and then incubated for 60 minutes (37° C., 5% CO2) in 60 μl assay buffer containing 1 μM Fluo-4AM ester, 0.02% pluronic acid, and 1% BSA. The dye loading solution was then aspirated and cells were washed 3× with 100 μl assay buffer. 30 μl of that same buffer was left in each well. Within the Fluorescent Imaging Plate Reader (FLIPR, Molecular Devices), test compounds were added to the plate in a volume of 25 μl, incubated for 5 minutes, and then 25 μl of agonist was added. Fluorescence was measured for each well at 1 second intervals for 5 minutes, and the height of each fluorescence peak was compared to the height of the fluorescence peak induced by 70 pM of Ala-6,12 orexin-A with buffer in place of test compound.

Row | Structure (SMILES) | IC50 [1] [nM] | IC50 [2] [nM]
1 | C[C@@H]1CC[C@@H](Oc2ncccc2[C@@H](C)O)CN1C(=O)c1ccccc1-n1nccn1 [Example 29, (1R)-1-(2-{[(3R,6R)-6-Methyl-1-{[2-(2H-1,2,3-triazol-2-yl)phenyl]carbonyl}piperidin-3-yl]oxy}pyridin-3-yl)ethanol] | 49 | 1160
2 | COc1ccc(C(=O)N2C[C@H](Oc3ncccc3CO)CC[C@H]2C)c(-n2nccn2)n1 [Example 49, (2-{[(3R,6R)-1-{[6-Methoxy-2-(2H-1,2,3-triazol-2-yl)pyridin-3-yl]carbonyl}-6-methylpiperidin-3-yl]oxy}pyridin-3-yl)methanol] | 588 | 10000
3 | Cc1ccc(CO)c(O[C@@H]2CC[C@@H](C)N(C(=O)c3ccccc3-n3nccn3)C2)n1 [Example 45, (6-Methyl-2-{[(3R,6R)-6-methyl-1-{[2-(2H-1,2,3-triazol-2-yl)phenyl]carbonyl}piperidin-3-yl]oxy}pyridin-3-yl)methanol] | 29 | 95
4 | C[C@@H]1CC[C@@H](Oc2ncccc2C(C)(C)O)CN1C(=O)c1ccccc1-c1ncccn1 [Example 23, 2-[2-({(3R,6R)-6-methyl-1-[(2-pyrimidin-2-ylphenyl)carbonyl]piperidin-3-yl}oxy)pyridin-3-yl] propan-2-ol] | 69 | 95
5 | C[C@@H]1CC[C@@H](Oc2ncccc2C(C)(C)O)CN1C(=O)c1ccccc1-n1nccn1 [Example 1, 2-(2-{[(3R,6R)-6-Methyl-1-{[2-(2H-1,2,3-triazol-2-yl)phenyl]carbonyl}piperidin-3-yl]oxy}pyridin-3-yl)propan-2-ol] | 30 | 44.5
6 | C[C@H](O)c1cccnc1O[C@@H]1CC[C@@H](C)N(C(=O)c2ccccc2-n2nccn2)C1 [Example 30, (1S)-1-(2-{[(3R,6R)-6-Methyl-1-{[2-(2H-1,2,3-triazol-2-yl)phenyl]carbonyl}piperidin-3-yl]oxy}pyridin-3-yl)ethanol] | 37 | 76
7 | C[C@@H]1CC[C@@H](Oc2ncccc2C(C)(C)O)CN1C(=O)c1cc(Cl)ccc1-n1nccn1 [Example 6, 2-(2-{[(3R,6R)-1-{[5-chloro-2-(2H-1,2,3-triazol-2-yl)phenyl]carbonyl}-6-methylpiperidin-3-yl]oxy}pyridin-3-yl)propan-2-ol] | 66 | 141
8 | Cc1ccc(C(C)(C)O)c(O[C@@H]2CC[C@@H](C)N(C(=O)c3ccccc3-n3nccn3)C2)n1 [Example 25, 2-(6-Methyl-2-{[(3R,6R)-6-methyl-1-{[2-(2H-1,2,3-triazol-2-yl)phenyl]carbonyl}piperidin-3-yl]oxy}pyridin-3-yl)propan-2-ol] | 77 | 55
9 | C#C[C@H](O)c1cccnc1O[C@@H]1CC[C@@H](C)N(C(=O)c2ccccc2-n2nccn2)C1 [Example 34, (1S)-1-(2-{[(3R,6R)-6-methyl-1-{[2-(2H-1,2,3-triazol-2-yl)phenyl]carbonyl}piperidin-3-yl]oxy}pyridin-3-yl)prop-2-yn-1-ol] | 26 | 584

Compounds with a lower IC50 [1], results first:

Row | IC50 [1] [nM] | IC50 [2] [nM] | Structure (SMILES)
10 | 13 | 12 | C[C@@H]1CC[C@@H](Oc2ncccc2C(C)(C)O)CN1C(=O)c1ccsc1-c1ncccn1 [Example 19, 2-[2-({(3R,6R)-6-Methyl-1-[(2-pyrimidin-2-ylthiophen-3-yl)carbonyl]piperidin-3-yl}oxy)pyridin-3-yl]propan-2-ol]
11 | 23 | 80 | CC(C)c1ccnc(O[C@@H]2CC[C@@H](C)N(C(=O)c3ccccc3-n3nccn3)C2)c1CO [Example 43, [4-(1-methylethyl)-2-{[(3R,6R)-6-methyl-1-{[2-(2H-1,2,3-triazol-2-yl)phenyl]carbonyl}piperidin-3-yl]oxy}pyridin-3-yl]methanol]
12 | 22.5 | 463 | COc1ccnc(O[C@@H]2CC[C@@H](C)N(C(=O)c3ccccc3-n3nccn3)C2)c1C(C)O (stereo partly drawn) [Example 26, 1-(4-Methoxy-2-{[(3R,6R)-6-methyl-1-{[2-(2H-1,2,3-triazol-2-yl)phenyl]carbonyl}piperidin-3-yl]oxy}pyridin-3-yl)ethanol]
13 | 15 | 69 | Cc1ccnc(O[C@@H]2CC[C@@H](C)N(C(=O)c3ccccc3-n3nccn3)C2)c1CO [Example 41, (4-methyl-2-{[(3R,6R)-6-methyl-1-{[2-(2H-1,2,3-triazol-2-yl)phenyl]carbonyl}piperidin-3-yl]oxy}pyridin-3-yl)methanol]
14 | 18 | 81 | C[C@@H]1CC[C@@H](Oc2nccc(C(F)(F)F)c2CO)CN1C(=O)c1ccccc1-n1nccn1 [Example 44, [2-{[(3R,6R)-6-methyl-1-{[2-(2H-1,2,3-triazol-2-yl)phenyl]carbonyl}piperidin-3-yl]oxy}-4-(trifluoromethyl)pyridin-3-yl] methanol]

— patent US20160102073A1, “2-HYDROXYMETHYL-SUBSTITUTED OREXIN RECEPTOR ANTAGONISTS” (MERCK SHARP & DOHME CORP., priority 2013, published 2016)
